Here are results for 45 compounds from patent publication US6933321B2, “Antiandrogenic biphenyls” (Endorecherche, Inc., priority 2002, dated 2005).

This experiment concerns Shionogi mouse mammary carcinoma cells. Briefly: Antiandrogenic activity on DHT-stimulated Shionogi mouse mammary carcinoma cell number. Format: cell-based. The conditions noted are these: for pIC50 / A = Ki OH-Flu/Ki compound: inhibition of DHT-stimulated Shionogi cell number; for pIC50: 10-12 days, read-out: Antiandrogenic activity IC50; for A = Ki OH-Flu/Ki compound: ratio of Ki of hydroxyflutamide versus tested compound, higher values preferable; for IC50: read-out: Antiandrogenic activity IC50 (nM).

pIC50: −log10 of the molar value. Where two headings read alike, the source gives them in different places.

As to `CN(C)c1ccc(NC(=O)c2cc(F)ccc2-c2ccc(C#N)c(C(F)(F)F)c2)cc1` [EM-5083], the “A = Ki OH-Flu/Ki compound” value is on record as under 0.2. Also, the pIC50 (Mus musculus) is under 6.30.
For `N#Cc1ccc(-c2ccc(F)cc2C(=O)Nc2ccc(F)cc2)cc1C(F)(F)F` [EM-5018], the “A = Ki OH-Flu/Ki compound” value is recorded as under 0.2. For the same compound, under “Mus musculus”, the pIC50 is under 6.30.
The corresponding values for `N#Cc1ccc(-c2cc(F)c(F)c(F)c2)cc1C(F)(F)F` [EM-4116] are under 0.2 and under 6.30.
As for `COC=Nc1cc(F)cc(C(N)=O)c1-c1ccc(C#N)c(C(F)(F)F)c1` [EM-5093], the “A = Ki OH-Flu/Ki compound” value is under 0.2. Also, for the setting “Mus musculus”, the pIC50 was under 6.30.
As to `N#Cc1ccc(-c2ccc(C#N)c(C(F)(F)F)c2)cc1Cl` [EM-4108], the “A = Ki OH-Flu/Ki compound” value is 0.6. Moreover, the negative-log IC50 (pIC50) (Mus musculus) is 6.95.
As to `N#Cc1ccc(-c2ccccc2)cc1C(F)(F)F` [EM-4118], the “A = Ki OH-Flu/Ki compound” value is on record as under 0.2. Further, the pIC50 (Mus musculus) is under 6.30.
The corresponding values for `CSc1cc(C#N)ccc1-c1ccc(C#N)c(C(F)(F)F)c1` [EM-4227] are 1.2 and 6.92.
The corresponding values for `CN(C)C(=O)c1cc(F)ccc1-c1ccc(C#N)c(C(F)(F)F)c1` [EM-4865] are under 0.2 and under 6.30.
As for `N#Cc1ccc(-c2cc(NC(=O)c3ccc(Cl)cc3)c(F)cc2C(N)=O)cc1C(F)(F)F` [EM-5003], the “A = Ki OH-Flu/Ki compound” value is given as under 0.2. For the same compound, the negative-log IC50 (pIC50) (Mus musculus) is under 6.30.
`N#Cc1ccc(-c2c(F)cc(F)cc2F)cc1Cl` [EM-4851]: the “A = Ki OH-Flu/Ki compound” value is recorded as under 0.2. In addition, where the note is “Mus musculus”, the pIC50 was under 6.30.
For `COc1ccc(-c2ccc(C#N)cc2)cc1C(F)(F)F` [EM-4246] the same measures were under 0.2 and under 6.30.
For the compound `COc1ccc(-c2ccc(C#N)cc2)cc1Br` [EM-4036], the “A = Ki OH-Flu/Ki compound” value is under 0.2. Moreover, under “Mus musculus”, the negative-log IC50 (pIC50) was under 6.30.
The corresponding values for `N#Cc1ccc(-c2ccccc2C(F)(F)F)cc1C(F)(F)F` [EM-4034] are under 0.2 and under 6.30.
Take `N#Cc1ccc(-c2cc([N+](=O)[O-])c(F)cc2F)cc1C(F)(F)F` [EM-4867]: the “A = Ki OH-Flu/Ki compound” value is recorded as under 0.2. Also, the pIC50 (Mus musculus) was under 6.30.
On to `CN(C)C(=O)Nc1ccc(-c2ccc(C#N)c(C(F)(F)F)c2)cc1` [EM-4206], for which the “A = Ki OH-Flu/Ki compound” value is reported as under 0.2. Further, for the setting “Mus musculus”, the pIC50 was under 6.30.
For `N#Cc1ccc(-c2ccc(F)cc2C(F)(F)F)cc1C(F)(F)F` [EM-4296] the same measures were under 0.2 and under 6.30.
On to `N#Cc1ccc(-c2ccc(C#N)c(Cl)c2)cc1` [EM-4281], for which the “A = Ki OH-Flu/Ki compound” value turned out to be 0.6. Besides, the negative logarithm of the IC50 (pIC50) (Mus musculus) is 6.84.
The corresponding values for `N#Cc1ccc(-c2ccc(C(F)(F)F)cc2)cc1C(F)(F)F` [EM-4051] are under 0.2 and under 6.30.
On to `CCCNC(=O)c1cc(F)ccc1-c1ccc(C#N)c(C(F)(F)F)c1` [EM-4855], for which the “A = Ki OH-Flu/Ki compound” value is given as under 0.2. In addition, the negative-log IC50 (pIC50) (Mus musculus) was under 6.30.
Turning to `N#Cc1ccc(-c2ccc(C#N)c(C(F)(F)F)c2)cc1` [EM-3730], the pIC50 is 6.82. Moreover, where the note is “Mus musculus”, the negative-log IC50 (pIC50) is 6.72.
With `COc1ccc(Cl)cc1-c1ccc(C#N)c(C(F)(F)F)c1` [EM-3747], the “A = Ki OH-Flu/Ki compound” value is on record as under 0.2. In addition, the negative-log IC50 (pIC50) (Mus musculus) was under 6.30.
Consider `COc1ccc(-c2ccc(C#N)cc2)cc1` [EM-3704], for which the “A = Ki OH-Flu/Ki compound” value is listed as under 0.2. Further, the negative logarithm of the IC50 (pIC50) (Mus musculus) is under 6.30.
For `N#Cc1ccc(-c2ccc(C(N)=O)cc2)cc1C(F)(F)F` [EM-3971] the same measures were under 0.2 and under 6.30.
As to `N#Cc1ccc(-c2cc(F)cc(F)c2)cc1C(F)(F)F` [EM-3974], the “A = Ki OH-Flu/Ki compound” value is under 0.2. Further, for the setting “Mus musculus”, the negative-log IC50 (pIC50) was under 6.30.
In the case of `N#Cc1ccc(-c2ccc(C#N)c(C(F)(F)F)c2)c(C(N)=O)c1` [EM-4320], the “A = Ki OH-Flu/Ki compound” value was under 0.2. Under “Mus musculus”, the negative-log IC50 (pIC50) was under 6.30.
As to `CC(O)(c1ccc(-c2ccc(C#N)c(C(F)(F)F)c2)cc1)C(F)(F)F` (stereo not drawn) [EM-4026], the “A = Ki OH-Flu/Ki compound” value is under 0.2. For the same compound, the negative-log IC50 (pIC50) (Mus musculus) was under 6.30.
Regarding `N#Cc1ccc(-c2ccc(F)cc2C(=O)N2CCCCC2)cc1C(F)(F)F` [EM-5020], the “A = Ki OH-Flu/Ki compound” value is recorded as under 0.2. Where the note is “Mus musculus”, the half-inhibitory concentration (IC50) is over 500 nM.
With `N#Cc1ccc(-c2ccc(F)cc2C(N)=O)cc1Cl` [EM-4849], the “A = Ki OH-Flu/Ki compound” value is given as under 0.2. Also, the negative logarithm of the IC50 (pIC50) (Mus musculus) was under 6.30.
As to `CSc1ccc(NC(=O)c2cc(F)ccc2-c2ccc(C#N)c(C(F)(F)F)c2)cc1` [EM-5082], the “A = Ki OH-Flu/Ki compound” value is reported as under 0.2. The pIC50 (Mus musculus) is under 6.30.
On to `Cc1cc(C#N)ccc1-c1ccc(C#N)c(C(F)(F)F)c1` [EM-4079], for which the “A = Ki OH-Flu/Ki compound” value is 0.8. Moreover, the concentration for half-maximal inhibition (IC50) (Mus musculus) amounted to 78 nM.
In the case of `CSc1cc(-c2ccc(C#N)cc2)ccc1C#N` [EM-4285], the “A = Ki OH-Flu/Ki compound” value was under 0.2. Also, the pIC50 (Mus musculus) is under 6.30.
For `N#Cc1ccc(-c2cccc(F)c2)cc1C(F)(F)F` [EM-3977], the “A = Ki OH-Flu/Ki compound” value was under 0.2. The pIC50 (Mus musculus) was under 6.30.
On to `N#Cc1ccc(-c2ccc(F)cc2F)cc1F` [EM-4282], for which the “A = Ki OH-Flu/Ki compound” value is given as under 0.2. The pIC50 (Mus musculus) was under 6.30.
For the compound `N#Cc1ccc(-c2ccc(Br)cc2C(N)=O)cc1C(F)(F)F` [EM-4979], the “A = Ki OH-Flu/Ki compound” value is given as under 0.2. Besides, the negative-log IC50 (pIC50) (Mus musculus) is under 6.30.
On to `Cc1cc(C#N)c(Cl)cc1-c1ccc(F)cc1F` [EM-5112], for which the “A = Ki OH-Flu/Ki compound” value came out at 1.1. For the same compound, under “Mus musculus”, the concentration for half-maximal inhibition (IC50) is 97 nM.
For the compound `N#Cc1ccc(-c2ccc(C(O)C(F)(F)F)cc2)cc1C(F)(F)F` (stereo not drawn) [EM-3998], the “A = Ki OH-Flu/Ki compound” value is listed as under 0.2. For the same compound, where the note is “Mus musculus”, the pIC50 was under 6.30.
Consider `N#Cc1ccc(-c2ccc(F)cc2F)cc1Cl` [EM-4283, 3-chloro-2′,4′-difluoro-biphenyl-4-carbonitrile], for which the “A = Ki OH-Flu/Ki compound” value was 2.3. Further, the 50% inhibitory concentration (IC50) (Mus musculus) was 37 nM.
Turning to `N#Cc1ccc(-c2ccc(F)c(C(F)(F)F)c2)cc1` [EM-4249], the “A = Ki OH-Flu/Ki compound” value is on record as under 0.2. Also, the negative logarithm of the IC50 (pIC50) (Mus musculus) was under 6.30.
Regarding `Cc1cc(F)cc([N+](=O)[O-])c1-c1ccc(C#N)c(C(F)(F)F)c1` [EM-4947], the “A = Ki OH-Flu/Ki compound” value is under 0.2. Also, the negative logarithm of the IC50 (pIC50) (Mus musculus) was under 6.30.
On to `COc1ccc(-c2ccc([N+](=O)[O-])c(C(F)(F)F)c2)cc1` [EM-3393], for which the “A = Ki OH-Flu/Ki compound” value was 0.4. The negative logarithm of the IC50 (pIC50) (Mus musculus) is 6.89.
Consider `N#Cc1ccc(-c2ccc(F)cc2C(=O)Nc2ccc(F)cc2F)cc1C(F)(F)F` [EM-5038], for which the “A = Ki OH-Flu/Ki compound” value is under 0.2. Besides, for the setting “Mus musculus”, the negative-log IC50 (pIC50) is under 6.30.
With `N#Cc1ccc(-c2ccc(C#N)c([N+](=O)[O-])c2)cc1` [EM-4344], the “A = Ki OH-Flu/Ki compound” value was under 0.2. Further, the negative logarithm of the IC50 (pIC50) (Mus musculus) is under 6.30.
The corresponding values for `N#Cc1ccc(-c2ccc(F)cc2C(=O)N2CCCC2)cc1C(F)(F)F` [EM-5014] are under 0.2 and under 6.30.
As to `N#Cc1ccc(-c2ccc(C#N)c(F)c2)cc1` [EM-4280], the “A = Ki OH-Flu/Ki compound” value is under 0.2. In addition, the pIC50 (Mus musculus) is under 6.30.
On to `N#Cc1ccc(-c2ccc(F)cc2C(=O)Nc2ccc(Cl)cc2)cc1C(F)(F)F` [EM-5086], for which the negative-log IC50 (pIC50) is under 6.30 and the “A = Ki OH-Flu/Ki compound” value was under 0.2.
